The text below walks through data of publication PMC11432330, “Novel Drug-like HsrA Inhibitors Exhibit Potent Narrow-Spectrum Antimicrobial Activities against Helicobacter pylori” (International Journal of Molecular Sciences, 2024).

One assay has as its system response regulator HsrA. The assay is described as follows: EMSA: inhibition of in vitro DNA binding activity of HsrA to promoter PporGDAB. Format: biochemical, Helicobacter pylori. The conditions noted are these: 6 μM HsrA, 120 ng PporGDAB, ligand 0.1-2 mM. As to the method: The DNA binding activities of recombinant HsrA and CosR were assessed in vitro by electrophoretic mobility shift assays (EMSAs). A 300-bp promoter region of the H. pylori 26695 operon porGDAB was used as the target sequence of HsrA in all EMSA experiments. Likewise, a 420-bp sequence of the C. jejuni sodB promoter (ATCC 33560) was used as the target DNA of CosR [90]. The oligonucleotides used for the synthesis of these promoter regions are described in Supplementary Table S4. Response regulators HsrA (6 μM) or CosR (700 nM) were mixed with 120 ng of their target promoters in a reaction buffer of 10 mM bis-Tris (pH 7.5), 40 mM KCl, 100 mg/L BSA, 1 mM DTT, and 5% glycerol. For the in vitro inhibition analyses, mixtures of target DNA and response regulator were exposed to 2, 1, 0.5, and 0.1 mM of each compound of interest, incubated at room temperature for 20 min, and then separated on a 6% non-denaturing electrophoresis. DMSO instead of inhibitors was included as a vehicle control, while an internal sequence of the Anabaena sp. pkn22 gene was used as the non-specific competitor in all assays. For DNA-protein binding visualization, gels were stained with the SYBR Safe DNA gel stain (Invitrogen) and analyzed with a Gel Doc 2000 Image Analyzer (Bio-Rad).

The test system of assay [1] is H. pylori ATCC 43504 (MTZ-R). The assay is described as follows: MIC/MBC, broth microdilution. Format: cell-based, Helicobacter pylori. The conditions noted are these: Helicobacter pylori, ATCC43504. As to the method:
(§1) The antimicrobial activity of the HsrA inhibitors was evaluated by the determination of the minimal inhibitory concentration (MIC) against four different strains of H. pylori: ATCC 700392 (aka 26695), ATCC 43504 (MTZ-resistant reference strain), ATCC 700684 (CLR-resistant reference strain), and Donostia 2 (LVX-resistant clinical isolate). The MICs were determined by the broth microdilution method, as previously described. Briefly, H. pylori strains were grown in blood agar at 37 °C for 72 h under microaerobic conditions. Fresh inoculums adjusted at OD600 = 0.01 [~10^6 colony forming units (CFU) per mL] in BHI broth supplemented with 4% fetal bovine serum (BHI + FBS) were prepared and immediately exposed to final concentrations between 64 and 0.031 mg/L of each compound of interest. The compound solvent (DMSO) as well as conventional antibiotics (MTZ, CLR, LVX) were included as controls. […] Each experiment was performed twice in triplicate. The MIC and MBC values of the selected compounds against C. jejuni ATCC 33560 were determined by using the same method and culture conditions described for the H. pylori strains.

The subject of assay [2] is H. pylori ATCC 700392 (26695). Briefly: MIC/MBC, broth microdilution. Format: cell-based, Helicobacter pylori. The conditions noted are these: Helicobacter pylori, ATCC700392. As to the method:
as §1

The subject of assay [3] is H. pylori ATCC 700684 (CLR-R). Briefly: MIC/MBC, broth microdilution. The class given is cell-based, Helicobacter pylori. The conditions noted are these: Helicobacter pylori; for MBC: ATCC700684, read-out: MBC; for MIC: ATCC700684, read-out: MIC. As to the method: as §1
For assay [4], the system named is H. pylori Donostia 2 (LVX-R). The assay is described as follows: MIC/MBC, broth microdilution. The class given is cell-based, Helicobacter pylori. The conditions noted are these: Helicobacter pylori. Here is the method: as §1
A further assay deals with C. jejuni ATCC 33560. The assay is described as follows: MIC/MBC, broth microdilution. Format: cell-based. The conditions noted are these: Campylobacter jejuni, ATCC33560, C. jejuni ATCC 33560. As to the method: as §1
For assay [5], the system named is K. pneumoniae ATCC 700603. Briefly: MIC/MBC according to EUCAST guidelines. The class given is cell-based, Klebsiella pneumonia. The conditions noted are these: Klebsiella pneumoniae, ATCC700603. Here is the method: The antimicrobial activities of the selected compounds against several Gram-negative and Gran-positive representative species of normal human microbiota were determined according to the EUCAST guidelines. Briefly, standardized inoculums (0.5 McFarland) were freshly prepared from overnight Mueller–Hinton agar plates of reference strains E. coli ATCC 25922, K. pneumonia ATCC 700603, E. faecalis ATCC 29212, S. aureus ATCC 29213, S. epidermidis ATCC 12228, and S. agalactiae ATCC 12386. Next, bacterial suspensions adjusted to 5 × 10^5 CFU/mL in Mueller–Hinton broth were exposed to a range of concentrations from 64 to 0.031 mg/L of the selected compounds. DMSO and conventional antibiotics LVX and AMP were included as controls. […] Experiments were performed twice in triplicate.

For assay [6], the system named is H. pylori strain ATCC 700392. Briefly: Time-kill kinetic assay. The class given is cell-based, Helicobacter pylori. The conditions noted are these: 4 × MIC, 10^4 CFU/mL. As to the method:
Time-kill kinetics of selected HsrA inhibitors were carried out as previously described, with slight modifications. Briefly, fresh grown cells of H. pylori strain ATCC 700392 were resuspended in BHI + FBS at 1.0 × 10^4 CFU/mL and exposed to 4 × MIC of each compound. Bacteria exposed to DMSO (vehicle) instead of the HsrA inhibitors were included as a control. All cultures were incubated at 37 °C under microaerobic conditions, and aliquots were taken after 0, 2, 4, 8, and 24 h of exposure for CFU determination. Experiments were performed twice in triplicate. Results were presented as log10 CFU/mL versus hours of exposure. Differences in H. pylori survival were subjected to statistical analysis by using the Mann–Whitney U test.

The mark [7] stands for this setting: H. pylori ATCC 43504 (MTZ-R), read-out: MBC.
The mark [8] stands for this setting: H. pylori ATCC 43504 (MTZ-R), read-out: MIC.
[9] abbreviates: H. pylori ATCC 700392 (26695), read-out: MBC.
Where [10] appears, read: H. pylori ATCC 700392 (26695), read-out: MIC.
Where [11] appears, read: H. pylori Donostia 2 (LVX-R), read-out: MBC.
Setting [12] is: H. pylori Donostia 2 (LVX-R), read-out: MIC.

In brackets after ≈: the same amount, converted by molar mass. Entries after “also recorded” stand apart in the source; their conditions may differ. Read-outs that look alike come from different tables or passages of the source.

`OC1(C(F)(F)F)CC(c2ccc3c(c2)Nc2ccccc2S3)=NN1` (stereo not drawn) [Ligand VIII]: the “Inhibition of in vitro DNA binding activity of HsrA (EMSA)” value (“Inhibition” for short) in the assay with response regulator HsrA is recorded as “appreciably stronger; also recorded: noticeably inhibited”. The minimum bactericidal concentration (MBC) in assay [1] (setting [7]) is 2 µg/mL (≈ 5.69 µM); in assay [2] (setting [9]), 2 µg/mL (≈ 5.69 µM); in assay [3], 2 µg/mL (≈ 5.69 µM); in assay [4] (setting [11]), 2 µg/mL (≈ 5.69 µM); against C. jejuni ATCC 33560, 32 µg/mL (≈ 91.1 µM); in assay [5], above 64 µg/mL. Also, the MIC in assay [1] (setting [8]) was 1 µg/mL (≈ 2.85 µM); in assay [2] (setting [10]), 1 µg/mL (≈ 2.85 µM); in assay [3], 1 µg/mL (≈ 2.85 µM); in assay [4] (setting [12]), 2 µg/mL (≈ 5.69 µM); in the assay with C. jejuni ATCC 33560, 16 µg/mL (≈ 45.5 µM); in assay [5] it was above 64 µg/mL. Further, the “Exposure time after which 10^4 H. pylori cells were completely killed” value (“Exposure time” below) in assay [6] is on record as 2 h.

In the case of `N#C/C(=C\C=C\c1ccccc1)c1nc2ccccc2[nH]1` [Ligand XII], the “Inhibition” value in the assay on response regulator HsrA is recorded as “noticeably inhibited”. Further, the MBC was 0.5 µg/mL (≈ 1.84 µM) in assay [1] (setting [7]); 2 µg/mL (≈ 7.37 µM) in assay [2] (setting [9]); 0.5 µg/mL (≈ 1.84 µM) in assay [3]; 1 µg/mL (≈ 3.69 µM) in assay [4] (setting [11]); above 64 µg/mL against C. jejuni ATCC 33560; above 64 µg/mL in assay [5]. In addition, the MIC was 0.5 µg/mL (≈ 1.84 µM) in assay [1] (setting [8]); 2 µg/mL (≈ 7.37 µM) in assay [2] (setting [10]); 0.5 µg/mL (≈ 1.84 µM) in assay [3]; 1 µg/mL (≈ 3.69 µM) in assay [4] (setting [12]); 64 µg/mL (≈ 236 µM) in the assay on C. jejuni ATCC 33560; above 64 µg/mL in assay [5]. In addition, the “Exposure time” value in assay [6] was 4 h.

In the case of `N#Cc1cnn(-c2ccc(C(F)(F)F)cc2[N+](=O)[O-])c1N` [Ligand I], in the assay on response regulator HsrA, the “Inhibition” value is listed as “noticeably inhibited”. Moreover, the minimal bactericidal concentration (MBC) in assay [1] (setting [7]) is 1 µg/mL (≈ 3.36 µM); in assay [2] (setting [9]), 4 µg/mL (≈ 13.5 µM); in assay [3], 4 µg/mL (≈ 13.5 µM); in assay [4] (setting [11]) it was 2 µg/mL (≈ 6.73 µM); against C. jejuni ATCC 33560 it was 32 µg/mL (≈ 108 µM); in assay [5], above 64 µg/mL. Besides, the MIC was 1 µg/mL (≈ 3.36 µM) in assay [1] (setting [8]); 4 µg/mL (≈ 13.5 µM) in assay [2] (setting [10]); 4 µg/mL (≈ 13.5 µM) in assay [3]; 2 µg/mL (≈ 6.73 µM) in assay [4] (setting [12]); 32 µg/mL (≈ 108 µM) against C. jejuni ATCC 33560; above 64 µg/mL in assay [5]. For the same molecule, the “Exposure time” value in assay [6] came to 8 h.

For the molecule `CSc1cccc(Nc2nc(C(C)(C)C)cs2)c1` [Ligand XI], in the assay on response regulator HsrA, the “Inhibition” value is recorded as “noticeably inhibited”. Besides, the MBC in assay [1] (setting [7]) is 4 µg/mL (≈ 14.4 µM); in assay [2] (setting [9]) it was 4 µg/mL (≈ 14.4 µM); in assay [3], 4 µg/mL (≈ 14.4 µM); in assay [4] (setting [11]), 4 µg/mL (≈ 14.4 µM); with C. jejuni ATCC 33560, above 64 µg/mL; in assay [5] it was above 64 µg/mL. For the same molecule, the MIC was 2 µg/mL (≈ 7.18 µM) in assay [1] (setting [8]); 4 µg/mL (≈ 14.4 µM) in assay [2] (setting [10]); 2 µg/mL (≈ 7.18 µM) in assay [3]; 2 µg/mL (≈ 7.18 µM) in assay [4] (setting [12]); above 64 µg/mL in the assay on C. jejuni ATCC 33560; above 64 µg/mL in assay [5]. The “Exposure time” value in assay [6] is recorded as 4 h.

Take `CSc1cccc(NC(=S)NCCNc2c([N+](=O)[O-])cc(C(F)(F)F)cc2[N+](=O)[O-])c1` [Ligand IV]: the “Inhibition” value with response regulator HsrA is “appreciably stronger; also recorded: noticeably inhibited”. Further, the minimal bactericidal concentration (MBC) is 4 µg/mL (≈ 8.41 µM) in assay [1] (setting [7]); 4 µg/mL (≈ 8.41 µM) in assay [2] (setting [9]); 4 µg/mL (≈ 8.41 µM) in assay [3]; 4 µg/mL (≈ 8.41 µM) in assay [4] (setting [11]); above 64 µg/mL against C. jejuni ATCC 33560; above 64 µg/mL in assay [5]. For the same molecule, the minimum inhibitory concentration (MIC) in assay [1] (setting [8]) is 2 µg/mL (≈ 4.21 µM); in assay [2] (setting [10]), 2 µg/mL (≈ 4.21 µM); in assay [3], 4 µg/mL (≈ 8.41 µM); in assay [4] (setting [12]), 4 µg/mL (≈ 8.41 µM); in the assay with C. jejuni ATCC 33560, 64 µg/mL (≈ 135 µM); in assay [5] it was above 64 µg/mL. For the same molecule, in assay [6], the “Exposure time” value turned out to be 4 h.

Regarding `NC(=NOC(=O)Nc1ccc(Cl)cc1)c1csc([N+](=O)[O-])c1` [Ligand V, N′-{[(4-chloroanilino)carbonyl]}oxy-5-nitrothiophene-3-carboximidamide], the “Inhibition” value with response regulator HsrA was “noticeably inhibited”. Also, the MBC in assay [1] was 0.125 µg/mL (≈ 0.367 µM); in assay [2], 0.125 µg/mL (≈ 0.367 µM); in assay [3], 0.031 µg/mL (≈ 0.091 µM); in assay [4], 0.125 µg/mL (≈ 0.367 µM); against C. jejuni ATCC 33560, at most 0.5 µg/mL; in assay [5], above 64 µg/mL. Further, the MIC in assay [1] was 0.125 µg/mL (≈ 0.367 µM); in assay [2] it was 0.063 µg/mL (≈ 0.185 µM); in assay [3] it was 0.031 µg/mL (≈ 0.091 µM); in assay [4], 0.125 µg/mL (≈ 0.367 µM); against C. jejuni ATCC 33560, at most 0.5 µg/mL; in assay [5], above 64 µg/mL. For the same molecule, the “Exposure time” value in assay [6] came out at 2 h.
